From a melting point compilation (Tetko et al.)

Row | melting point [°C] | Compound
1 | 125 to 127 | CC(C)(C(=O)O)C(O)c1cccc(OCc2ccccc2)c1 (centres undefined)
2 | 132 to 134 | O=Cc1ccc(OCCC(=O)O)cc1
3 | 149 to 151 | O=C(O)C1CCN(S(=O)(=O)c2cc(F)ccc2F)CC1
4 | 114 to 116 | O=[N+]([O-])c1cnc(Cl)nc1NC1CC1
5 | 134 to 138 | CC(C)CNC(N)=O
6 | 59 to 61 | O=C(CBr)C12CC3CC(CC(C3)C1)C2
7 | 145 to 147 | COc1ccc(C(=O)NC2CCS(=O)(=O)C2)cc1N (centres undefined)
8 | 106 to 108 | Fc1ccc(CCNC2=NCCS2)cc1
9 | 199 to 201 | NC(=O)c1cnn2c(C(=O)O)ccnc12
10 | 144 to 146 | CCN1C(=O)C(=O)c2cc(Br)ccc21
11 | 180 to 183 | COc1ccc(N(C(C)=O)c2nc(C=O)cs2)cc1
12 | 109 to 111 | Cc1ccc(C(=O)Nc2cccc(C(F)(F)F)c2)cc1N
13 | 146 to 148 | CN1CCCNc2nc3ccccc3nc21
14 | 259 to 261 | CS(=O)(=O)c1nc(C(=O)O)c2ccccn12
15 | 62 to 64 | N#CCN1CCOCC1
16 | 84 to 86 | CCNC(=O)CCC(=O)O
17 | 126 to 128 | Brc1cnn(-c2cccnc2)c1
18 | 133 to 135 | Cn1cnnc1-c1ccccc1N
19 | 182 to 184 | Cc1cccc(NC(=O)NCC(=O)O)c1
20 | 170 to 172 | O=C(NO)c1ccc(Cl)cc1
21 | 64 to 66 | N#Cc1cccc(Br)c1N=C=O
22 | 225 to 227 | COC(=O)c1cncc(C(=O)O)c1
23 | 238 to 240 | Cc1ccc2ncnc(O)c2c1

Row | melting point [°C] | Compound
24 | 235 to 237 | Cc1c(-c2ccccc2)nc2ccccc2c1C(=O)O
25 | 200 to 202 | O=C1Nc2c(I)cccc2C1=O
26 | 249 to 251 | O=C(O)c1cncc2ccccc12
27 | 146 to 148 | O=C(O)c1cc(Cl)cc([N+](=O)[O-])c1
28 | 205 to 207 | CC(C)(C)C1CCc2[nH]c(=O)sc2C1 (centres undefined)
29 | 222 to 224 | COc1ccc(/C=C/C(=O)O)cc1F
30 | 153 to 155 | NNC(=O)Nc1ccc(Cl)cc1Cl
31 | 84 to 86 | OC1CCN(c2cnnc3ccccc23)CC1
32 | 115 to 117 | Clc1ncnc2c1nnn2-c1ccccc1
33 | 213 to 215 | O=C(O)C1(NS(=O)(=O)c2cccc(F)c2)CCCCC1
34 | 100 to 102 | O=C(NC1CC1)C(=O)N1CCNCC1
35 | 118 to 120 | O=C(O)CCNC(=O)c1ccc(F)cc1F
36 | 168 to 170 | O=C(O)c1ccc(OCc2ccccc2)nc1
37 | 219 to 221 | O=C(O)c1cc(-c2ccccc2)nc2cc(Br)ccc12
38 | 239 to 241 | CC(C)c1nccc(O)n1
39 | 75 to 77 | CC(N)c1ccc(OCC(=O)NC2CC2)cc1 (centres undefined)
40 | 190 to 192 | Cn1nnnc1SCC(=O)Nc1ccc(C(=O)O)cc1
41 | 149 to 151 | O=C(O)COc1ccc([N+](=O)[O-])c(F)c1
42 | 110 to 112 | NCC(O)COc1cccc(Cl)c1Cl (centres undefined)
43 | 99 to 101 | O=Cc1csc(-c2cccc(Br)c2)n1
44 | 59 to 61 | COCCNc1nnnn1C
45 | 209 to 211 | CS(=O)(=O)c1cc(Br)cc(C(=O)O)c1F
46 | 253 to 255 | Cc1[nH]c(-c2ccnc(Cl)c2)nc(=O)c1C

Row | melting point [°C] | Compound
47 | 289 to 291 | NC(=O)c1cnn2c3c(cnc12)CCOC3=O
48 | 69 to 71 | CS(=O)(=O)C1CCCCC1=O (centres undefined)
49 | 274 to 276 | Cc1ccc(-c2cnnc(N)n2)o1
50 | 260 to 262 | O=c1[nH][nH]c2ncccc12
51 | 105 to 107 | CC(C)COc1ccc(C2(C(=O)O)CCC2)cc1
52 | 94 to 96 | O=C(O)Cc1cccc(OCc2cccc(Cl)c2)c1
53 | 215 to 217 | CC1(c2c(F)cccc2F)NC(=O)NC1=O (centres undefined)
54 | 82 to 84 | COC(=O)C(C)NC(=O)Cc1ccc(Cl)cc1 (centres undefined)
55 | 169 to 171 | NC(=O)C1OCCc2ccccc21 (centres undefined)
56 | 72 to 74 | Nc1ccccc1CN1CCSCC1
57 | 53 to 55 | c1cc2c(cn1)ncn2C1CC1
58 | 206 to 208 | Fc1cccc(Nc2nnc(S)s2)c1
59 | 165 to 167 | CC(C)C(NC(=O)COc1ccccc1)C(=O)O (centres undefined)
60 | 124 to 126 | CCOC(=O)/C(C#N)=C\Nc1ccccc1CC
61 | 75 to 77 | Cc1ccc(CCCCC(=O)O)cc1
62 | 61 to 63 | CCOC(=O)C(=O)CC(=O)c1ccc2c(c1)OCO2
63 | 235 to 237 | Cc1nc(-c2ccsc2)sc1C(=O)O
64 | 232 to 234 | NNc1ncnc2c1oc1ccccc12
65 | 77 to 79 | Cc1cccc(-c2nonc2N)c1
66 | 158 to 160 | O=C(O)c1nccn2c(Br)cnc12
67 | 111 to 113 | NCc1ccc(N2CCN(c3ccccc3)CC2)nc1
68 | 164 to 166 | CC(=O)N(C)c1nc(C=O)cs1
69 | 229 to 231 | Cc1nccn1-c1cc(C(=O)O)c2ccccc2n1

Row | melting point [°C] | Compound
70 | 120 to 122 | NC(=S)COc1ccc(F)cc1
71 | 255 to 257 | O=C(O)c1c[nH]nc1-c1cccnc1
72 | 217 to 219 | Nc1ccc2c(c1)OCC(=O)N2
73 | 257 to 259 | Cc1sc2ncnc(N)c2c1C
74 | 87 to 89 | CS(=O)(=O)c1cccc(S(=O)(=O)Cl)c1
75 | 147 to 149 | CCN(CC)S(=O)(=O)c1cc(C)c(C)c(N)c1
76 | 59 to 61 | O=C1c2ccccc2C(=O)N1CCCS(=O)(=O)Cl
77 | 108 to 110 | O=C1COc2c(Cl)cccc21
78 | 249 to 251 | Cn1cnnc1-c1ccc(N)nc1
79 | 74 to 76 | COc1ccc(F)cc1C(C)N (centres undefined)
80 | 238 to 240 | COc1ccc(-c2nn(-c3ccccc3)cc2C=CC(=O)O)cc1
81 | 192 to 194 | CS(=O)(=O)c1ccc2nnn(O)c2c1
82 | 104 to 106 | O=C1OCc2ccc(S(=O)(=O)Cl)cc21
83 | 82 to 84 | O=S(=O)(Cl)c1c(Br)cc(F)cc1Br
84 | 130 to 135 | CC(Cl)C(=O)Nc1ccc(Cl)c(C(F)(F)F)c1 (centres undefined)
85 | 166 to 168 | CN(C)/C=C(/C#N)C(N)=O
86 | 79 to 81 | c1ccc2nn(C3CCNC3)cc2c1 (centres undefined)
87 | 266 to 268 | Cn1cnnc1-c1cncc(O)c1
88 | 193 to 195 | O=C1CCC(c2ccc(F)cc2)=NN1
89 | 114 to 116 | CC(N)(C(N)=O)c1ccccc1 (centres undefined)
90 | 211 to 213 | Cc1cccc(C(N)CC(=O)O)c1C (centres undefined)
91 | 53 to 55 | O=C1OCC=C1Br
92 | 171 to 173 | Nc1ccc(N2CCNC2=O)cc1

Row | melting point [°C] | Compound
93 | 148 to 150 | CS(=O)(=O)c1cc([N+](=O)[O-])c(Cl)s1
94 | 101 to 104 | CCC(C)C(=O)NCC(=O)O (centres undefined)
95 | 184 to 186 | CON(C)S(=O)(=O)c1ccc(Cl)c(C(=O)O)c1
96 | 139 to 141 | Cc1ccc(Br)c(C(=O)O)c1
97 | 101 to 103 | CN1C(=O)CC(CO)C1c1cccc(Cl)c1 (centres undefined)
98 | 207 to 209 | O=C(O)c1ccc(Cl)c(S(=O)(=O)NCC2CCCO2)c1 (centres undefined)
99 | 153 to 155 | COc1ccc(S(=O)(=O)Nc2cccnc2)cc1N
100 | 183 to 185 | O=C(O)c1cc(-c2ccccc2)ns1
101 | 187 to 189 | ON=Cc1ccc(OCc2cccnc2)cc1
102 | 164 to 166 | COc1cc(C(=O)O)cc(OC)c1C(C)C
103 | 191 to 193 | Cc1ccc(NC(=O)CC2(C(=O)O)CCCC2)cc1
104 | 127 to 129 | Clc1cc(-n2ccnc2)ncn1
105 | 159 to 161 | Nc1cccc(-c2n[nH]c3c2CCCC3)c1
106 | 155 to 158 | CS(=O)(=O)Nc1ccc(C(=O)CCl)cc1
107 | 150 to 152 | CC1(c2ccccc2)NC(=O)N(NC(=O)CCl)C1=O (centres undefined)
108 | 183 to 185 | Cc1cc(C)nc(-n2nccc2N)n1
109 | 147 to 149 | Cc1cc(C)c2c(N)c(C(=O)N3CCOCC3)sc2n1
110 | 124 to 126 | O=C(O)c1cccn1Cc1ccccc1
111 | 128 to 130 | CNCc1cn(C)c(=O)n(C)c1=O
112 | 89 to 91 | CCC1=NN(C)C(=O)C1
113 | 90 to 92 | O=C1CNC(=O)N1CCCCl
114 | 289 to 291 | NC(=O)c1ccc(Oc2ccc(C(=O)O)cc2)cc1
115 | 185 to 187 | O=C(O)c1cccc(N2NC(=O)C3CC=CCC3C2=O)c1 (centres undefined)

Row | melting point [°C] | Compound
116 | 191 to 196 | O=C(O)C1CCN(C(=O)/C=C/c2ccccc2)CC1
117 | 159 to 161 | NC(=NO)c1ccc(Oc2ccccc2)nc1
118 | 102 to 104 | O=C(O)COc1ccccc1-c1ccccc1
119 | 83 to 85 | COc1ccc2cncnc2c1
120 | 257 to 259 | Cc1nc(=NCC(=O)O)c2cc(-c3ccccc3)sc2[nH]1
121 | 83 to 85 | CN1CCN(C(=O)c2ccc(C#N)cn2)CC1
122 | 184 to 186 | CCN(CC)S(=O)(=O)c1ccc(C=CC(=O)O)cc1
123 | 69 to 73 | Cc1ccc2c(c1)CCC2=O
124 | 87 to 89 | O=[N+]([O-])c1ccc(COc2ccccc2)cc1
125 | 215 to 217 | Cc1cc(C)c(C)c(Oc2c(C(=O)O)c(C)nn2C)c1
126 | 290 to 292 | Sc1nnc(-c2ccncc2)n1-c1ccccc1
127 | 175 to 176 | Nc1cc(C(F)(F)F)ccc1C(=O)O
128 | 108 to 110 | C=CCN1C(=O)C(=O)c2ccccc21
129 | 359 to 361 | N#Cc1c[nH]c2ccc(Br)cc2c1=O
130 | 228 to 230 | CCOc1ccc(C=C(C#N)C(=O)O)cc1
131 | 191 to 195 | CCOC(=O)c1c(C)oc2nc(CCl)nc(N)c12
132 | 170 to 172 | CN(CC(=O)O)c1ccc(C#N)cn1
133 | 157 to 162 | CC(C)(C)c1cc(C(=O)O)c(O)c(C(C)(C)C)c1
134 | 227 to 229 | Nc1cc2c(cc1Cl)NC(=O)CO2
135 | 119 to 121 | Cc1nn2c(CO)c(C(C)C)nc2s1
136 | 134 to 136 | Cc1occc1-c1nnc(S)n1Cc1ccccc1
137 | 179 to 181 | NC(=O)NC(=O)CCCCl
138 | 162 to 164 | Nc1ccc(S(=O)(=O)Nc2ccc(F)cc2F)cc1

Row | Compound | melting point [°C]
139 | COc1ccc(NC2=NCCS2)cc1OC | 88 to 90
140 | CN1CCN(c2ccc(C#N)cn2)CC1 | 67 to 69
141 | O=C(OCCl)OC1CCCCC1 | 36 to 38
142 | O=[N+]([O-])c1ccc(N2CCNCC2)nc1 | 128 to 130
143 | CCc1cccc(C)c1NC(=O)CCl | 100 to 110
144 | COc1ccc(CCl)cc1C#N | 99 to 101
